From patent US7851587B2, “Peptides derived from the C2 domain of epsilon PKC” (The Board of Trustees of the Leland Stanford Junior …, priority 2006, dated 2010)
“Also recorded” adds a separate entry of the source. Read-outs that look alike come from different tables or passages of the source. Ends that are not written are not given here.

Experiments:
[1] = system: εPKC; test: εPKC translocation from the soluble to the particulate fraction in CHO cells (immunoblot); assay type: cell-based; conditions: for εPKC translocation in cells: 500 nM peptide for 15 minutes before sub-maximal 3 nM PMA, relative to control
Method: Upon activation, PKC translocates from the soluble to the particulate cell fraction, which translocation can be monitored by immunoblot analysis (26). It was previously determined that the effect of peptides on PKC translocation is better observed when the cells are treated with a sub-maximal concentration of PMA (22,42). Larger concentrations of PMA, a non-physiological activator, stimulate a greater degree of PKC translocation over translocation stimulated by peptide activators alone (51).
A representative activator (peptide 2) or inhibitor (peptide 7) were preincubated at 500 nM for 15 minutes with cells before sub-optimal stimulation with 3 nM PMA for 7 minutes.
PKC Translocation in Cells—εPKC translocation from the soluble to the particulate fraction in CHO cells was used to assess the relative amount of activated (membrane-bound) εPKC, an assay that has been described previously (42). Evidence of translocation is either by an increase in the amount of PKC in the particulate fraction or by a decrease in the soluble fraction. Briefly, after stimulation, cells were washed with cold PBS, scraped in homogenization buffer, passed through a (25G⅝″) syringe needle, and spun at 100,000 g for 30 min at 4° C. The pellet was then resuspended in homogenization buffer with 1% Triton X-100. Where applicable, the cells were pre-incubated with 500 nM peptide for 15 minutes prior to stimulation. PKC was stimulated with sub-maximal levels of the general PKC activator phorbol 12-myristate 13-acetate (PMA, 3 nM). The samples were then analyzed by Western blot. Antibodies against εPKC were obtained from Santa Cruz Biotechnology (Santa Cruz, Calif.) and used at 1:500 dilution.

[2] = system: PKC; test: MARCKS phosphorylation in primary skeletal muscle cells from εPKC knockout mice (Western blot); conditions: primary mouse muscle cells from εPKC knock-out mice; 1 μM peptide for 15 minutes
[3] = system: intact heart, ex vivo; test: Ex vivo cardiac protection, ischemia and reperfusion in Langendorff-perfused hearts (TTC staining, CPK release); design: species or system Wistar rats
[4] = target: T1, εPKC (Mus musculus, UniProt P16054); test: In vivo PKC translocation in hearts after intraperitoneal injection (immunoblot); design: species or system mice; conditions: for translocation of εPKC in hearts in vivo: particulate fraction of mouse hearts, 15 minutes following IP injection of 20 nmol peptide, relative to control TAT peptide
T1 construct: from tissue; host or cells: mouse heart
T1 sequence (P16054 1-737): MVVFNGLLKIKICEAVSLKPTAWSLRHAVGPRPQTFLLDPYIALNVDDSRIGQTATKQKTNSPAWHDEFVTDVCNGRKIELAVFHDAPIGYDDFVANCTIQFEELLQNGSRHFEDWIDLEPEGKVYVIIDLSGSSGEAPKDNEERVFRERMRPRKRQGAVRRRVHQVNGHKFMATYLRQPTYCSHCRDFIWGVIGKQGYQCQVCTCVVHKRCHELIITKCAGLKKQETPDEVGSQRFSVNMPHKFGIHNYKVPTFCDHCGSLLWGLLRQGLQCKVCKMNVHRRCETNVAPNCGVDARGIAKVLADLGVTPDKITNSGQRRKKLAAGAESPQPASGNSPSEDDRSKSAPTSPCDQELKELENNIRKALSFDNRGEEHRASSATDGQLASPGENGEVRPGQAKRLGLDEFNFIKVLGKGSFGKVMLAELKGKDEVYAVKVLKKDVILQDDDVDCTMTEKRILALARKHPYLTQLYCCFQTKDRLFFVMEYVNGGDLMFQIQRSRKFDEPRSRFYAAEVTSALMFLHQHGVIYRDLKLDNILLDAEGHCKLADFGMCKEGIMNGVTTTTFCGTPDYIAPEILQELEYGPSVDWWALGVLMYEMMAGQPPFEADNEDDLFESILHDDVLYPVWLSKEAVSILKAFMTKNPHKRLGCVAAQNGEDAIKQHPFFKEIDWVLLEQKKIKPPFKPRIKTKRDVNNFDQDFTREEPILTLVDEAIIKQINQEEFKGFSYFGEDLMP
Method: (§1) In a further in vivo study, peptide activity and selectivity were examined using representative peptides injected into mice via intraperitoneal (IP) injection, and the amount of εPKC, δPKC, αPKC, and ζPKC translocation in hearts was determined. These four PKC isozymes represent each of the three major sub-families of PKC. In particular, εPKC and δPKC are members of the novel PKC family (calcium insensitive, diacylglycerol sensitive), αPKC is a classical PKC (calcium and diacylglycerol sensitive), and ζPKC is an atypical PKC (calcium and diacylglycerol insensitive).
(§2) Levels of εPKC, δPKC, αPKC, and ζPKC in the particulate fraction of mouse hearts were assayed by immunoblot 15 minutes following IP injection of 20 nmol each peptides (FIGS. 5A-5D). The accompanying graphs show quantitation based on two experiments, calculated as fold increase (+/−standard error) in the particulate fraction/total fraction, normalized to the actin loading control, and relative to the control TAT peptide. […] Since peptides 11 and 13 caused MARCKS phosphorylation in myocytes from the εPKC knockout mice (FIG. 3), it is concluded that they activated several PKC isozymes.
(§3) Isozyme Selectivity In Vivo—To determine that activator peptides causing MARCKS phosphorylation and decreasing ischemia-reperfusion damage in heart also induce εPKC translocation in vivo, we injected the respective peptides at 20 nmol in 200 μl saline into the peritoneum of 15-20 g mice, as previously reported (48). Fifteen minutes later, the mice were sacrificed and heart and brain were collected. Soluble and particulate fractions from mouse tissue were prepared as previously described (48). ε, ζ and δPKC translocation were determined by Western blot analysis using selective anti-PKC antibodies from Santa Cruz Biotechnology, Santa Cruz, Calif. and used at 1:500 dilution. Sarcomeric actin (1:1000, Sigma) was used as a loading control for all fractions.

[5] = system: intact heart, ex vivo; conditions: pre-treatment, Langendorff apparatus; refs (4,43); cited from earlier work
[6] = target: T2, δPKC (Mus musculus, UniProt P28867); test: In vivo PKC translocation in hearts after intraperitoneal injection (immunoblot); design: species or system mice; conditions: particulate fraction of mouse hearts, 15 minutes following IP injection of 20 nmol peptide; relative to control TAT peptide
T2 construct: from tissue; host or cells: mouse heart
T2 sequence (P28867 whole entry): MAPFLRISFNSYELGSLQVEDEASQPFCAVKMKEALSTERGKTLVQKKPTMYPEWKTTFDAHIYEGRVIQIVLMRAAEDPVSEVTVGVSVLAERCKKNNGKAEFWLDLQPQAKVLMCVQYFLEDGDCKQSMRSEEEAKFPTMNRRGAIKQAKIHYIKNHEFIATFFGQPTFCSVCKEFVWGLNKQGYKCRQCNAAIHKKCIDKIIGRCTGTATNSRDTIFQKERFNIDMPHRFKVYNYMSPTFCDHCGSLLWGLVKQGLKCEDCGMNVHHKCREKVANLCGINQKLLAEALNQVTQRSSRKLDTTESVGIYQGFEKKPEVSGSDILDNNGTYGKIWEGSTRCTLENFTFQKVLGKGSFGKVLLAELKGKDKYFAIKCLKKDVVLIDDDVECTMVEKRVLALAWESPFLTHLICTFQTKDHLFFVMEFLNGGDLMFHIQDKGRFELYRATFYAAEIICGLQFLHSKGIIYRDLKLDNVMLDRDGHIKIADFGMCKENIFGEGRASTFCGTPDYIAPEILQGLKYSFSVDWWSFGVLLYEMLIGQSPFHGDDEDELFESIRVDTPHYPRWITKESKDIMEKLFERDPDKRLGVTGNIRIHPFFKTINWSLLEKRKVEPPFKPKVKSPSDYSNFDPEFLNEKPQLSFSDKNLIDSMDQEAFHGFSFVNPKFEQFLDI
Method: as §1, §2, §3

[7] = target: T3, αPKC (Mus musculus, UniProt P20444); test: as above; design: species or system mice; conditions: particulate fraction of mouse hearts, 15 minutes following IP injection of 20 nmol peptide; relative to control TAT peptide
T3 construct: from tissue; host or cells: mouse heart
Method: as §1, §2, §3

[8] = system: PKC; conditions: primary mouse muscle cells, wild-type; 1 μM peptide for 15 or 30 minutes prior to cell lysis
[9] = system: ηPKC; conditions: ηPKC-derived peptides; Ref. (1, 63); cited from earlier work
Chain of ηPKC (P24723 whole entry, the tested form may be a part): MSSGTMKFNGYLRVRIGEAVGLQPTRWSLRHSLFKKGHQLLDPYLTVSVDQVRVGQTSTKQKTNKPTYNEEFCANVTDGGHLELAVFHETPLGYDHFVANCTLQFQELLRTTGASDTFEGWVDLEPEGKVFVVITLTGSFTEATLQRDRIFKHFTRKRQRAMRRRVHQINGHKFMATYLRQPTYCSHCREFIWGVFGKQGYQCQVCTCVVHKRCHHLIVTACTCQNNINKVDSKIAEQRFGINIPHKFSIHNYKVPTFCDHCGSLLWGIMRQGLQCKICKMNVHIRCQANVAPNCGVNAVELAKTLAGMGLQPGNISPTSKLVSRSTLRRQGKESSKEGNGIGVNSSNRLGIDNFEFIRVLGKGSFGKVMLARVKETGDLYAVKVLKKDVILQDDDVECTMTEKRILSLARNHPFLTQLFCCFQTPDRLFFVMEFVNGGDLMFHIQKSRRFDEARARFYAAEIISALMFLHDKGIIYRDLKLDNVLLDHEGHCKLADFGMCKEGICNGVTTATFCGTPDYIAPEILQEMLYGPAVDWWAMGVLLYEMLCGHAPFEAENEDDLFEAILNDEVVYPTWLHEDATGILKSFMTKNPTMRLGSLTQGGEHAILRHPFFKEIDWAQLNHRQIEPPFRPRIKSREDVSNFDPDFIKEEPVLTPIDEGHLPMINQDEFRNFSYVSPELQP

[10] = 1 μM TAT-conjugated peptide 10 minutes prior to 40 minutes global ischemia, 60 minutes reperfusion (peptide 9: 30 minutes ischemia), † and ‡ = trend towards cardioprotective (n = 5, n = 3)

Substance	εPKC translocation in cells [1]	MARCKS phosphorylation in εKO Cells [2]	Cardioprotective ex vivo [3]	further results
CAVGPRPQT (not fully specified (residue 1)) [Peptide 2]	activator	not in KO; also recorded: no effect	–	increase in the amount of εPKC translocation compared to pre-treatment with the TAT control peptide ([1]; 500 nM peptide 15 minutes, then 3 nM PMA 7 minutes, n=5, p<0.05): approximately 30%; Cardioprotective ex vivo [3, 10]: cardioprotective and yes
CEAVSLKPT [εV1-2, reference compound]	decrease in the amount of εPKC in the pellet fraction; also recorded: inhibitor	no effect	–	Cardioprotective ex vivo [3, 10]: no
CEFVTDV [Peptide 8]	activator	not conclusive	not cardioprotective and no	–
CFLLDPY [Peptide 3]	activator	not in KO; also recorded: no effect	trend towards cardioprotection and yes‡	–
CFNGLLKIKI (not fully specified (residue 1)) [Peptide 1]	activator	not in KO; also recorded: no effect	–	translocation of εPKC in hearts in vivo [4]: caused translocation of εPKC; Cardioprotective ex vivo [3, 10]: trend towards cardioprotection and yes†
CHDAPIGYD [ψεRACK, reference compound]	activator	not in KO; also recorded: no effect	–	translocation of εPKC in hearts in vivo [4]: caused translocation of εPKC; damage (infarction) of hearts subjected to ischemia and reperfusion ex vivo [5]: reduced damage; Cardioprotective ex vivo [3, 10]: cardioprotective and yes
CHFEDWID (not fully specified; also: TAT47-57 carrier linked via Cys disulfide) [Peptide 11]	–	increased MARCKS phosphorylation; also recorded: activator	not cardioprotective and no	translocation of δPKC in hearts in vivo [6]: substantial translocation; translocation of αPKC in hearts in vivo [7]: substantial translocation; translocation of εPKC in hearts in vivo [4]: substantial translocation
CIELAVF [Peptide 10]	activator	not conclusive	no	MARCKS phosphorylation in WT Cells [8]: activator
CLEPEGK [Peptide 12]	decrease in the amount of εPKC in the pellet fraction; also recorded: inhibitor	–	–	–
CLSETKPAV (not fully specified; also: TAT47-57 conjugated) [scrambled εV1-2, reference compound]	stimulated εPKC translocation; also recorded: activator	no effect	not cardioprotective and no	translocation of δPKC in hearts in vivo [6]: did not cause an increase; PKC translocation, in vivo ([4]; mouse hearts, 15 minutes after IP injection of 20 nmol peptide, the cell words say which of ε, δ, α, ζPKC translocate): no; translocation of εPKC in hearts in vivo [4]: did not cause an increase
CNGRKI (not fully specified; also: TAT47-57 carrier linked via Cys disulfide) [Peptide 9]	activator	not in KO; also recorded: no effect	cardioprotective and yes	–
CPAWHD [Peptide 7]	decrease in the amount of εPKC in the pellet fraction; also recorded: inhibitor	–	no	decrease in the amount of translocated εPKC compared to pre-treatment with the TAT control peptide ([1]; 500 nM peptide 15 minutes, then 3 nM PMA 7 minutes, n=3, p<0.01): approximately 50%
CPDYHDAGI (not fully specified; also: TAT47-57 conjugated) [scrambled ψεRACK, reference compound]	–	–	not cardioprotective and no	MARCKS phosphorylation in WT Cells [8]: No change
CPYIALNVD (not fully specified (residue 1)) [Peptide 4]	decrease in the amount of εPKC in the pellet fraction; also recorded: inhibitor	–	–	–
CSRIGQ [Peptide 5]	activator	not in KO; also recorded: no effect	cardioprotective and yes	translocation of εPKC in hearts in vivo [4]: caused translocation of εPKC
CTATKQKT (not fully specified; also: TAT47-57 carrier linked via Cys disulfide) [Peptide 6]	activator	weak activator	cardioprotective and yes	MARCKS phosphorylation in WT Cells [8]: activator
CVYVIIDL (not fully specified (residue 1)) [Peptide 13]	activator	increased MARCKS phosphorylation; also recorded: activator	not cardioprotective and no	–
CYGRKKRRQRRR (TAT carrier peptide with N-terminal cysteine) [reference compound]	no effect	no effect	–	MARCKS phosphorylation in WT Cells [8]: no effect; Cardioprotective ex vivo [3, 10]: no; Cardioprotective ex vivo ([3]; 1 μM TAT-conjugated peptide 10 minutes prior to 40 minutes global ischemia, 60 minutes reperfusion (peptide 9: 30 minutes ischemia), † and ‡ = trend towards cardioprotective (n = 5, n = 3), listed as TAT): not cardioprotective
EAVGLQPT (peptide derived from eta PKC)	–	–	–	Activity (known PKC-modulating activity) [9]: inhibitor
HETPLGYD (peptide derived from eta PKC)	–	–	–	Activity (known PKC-modulating activity) [9]: activator
